Test results: ChEMBL document CHEMBL1921700, “Synthesis of novel 3-carboxamide-benzocoumarin derivatives as orally active antithrombotic agents” (Bioorg Med Chem Lett, 2011)

Legend:
Mus musculus [1] = test: Toxicity in mouse assessed as increase in bleeding time at 30 uM/kg, po administered 60 mins prior to tail incision after 3 days relative to aspirin; type: organism-based; details: in vivo
Mus musculus [2] = test: Ex vivo antithrombotic activity in mouse assessed as protection against collagen and adrenaline-induced hind limb paralysis or death at 30 uM/kg, po administered 60 mins prior to thrombotic challenge after 1 hr; type: functional, Hindlimb
Mus musculus [3] = test: Ex vivo antithrombotic activity in mouse assessed as protection against collagen and adrenaline-induced hind limb paralysis or death at 30 uM/kg, po administered 60 mins prior to thrombotic challenge after 3 days; type: functional, Hindlimb
Mus musculus [4] = test: Ex vivo anticoagulant activity in mouse assessed as prothrombin time in plasma at 30 uM/kg, po after for 3 days; type: functional
Mus musculus [5] = test: Toxicity in mouse assessed as increase in bleeding time at 30 uM/kg, po administered 60 mins prior to tail incision after 1 hr relative to aspirin; type: organism-based; details: in vivo

Compound: CCCNC(=O)c1cc2cc(C)c3ccccc3c2oc1=O
- Activity (Mus musculus [1]): 55%
- Activity (Mus musculus [2]): 10%
- Activity (Mus musculus [3]): 20%
- Time (Mus musculus [4]): 10.2 s
- Activity (Mus musculus [5]): 17%

Compound: CNC(=O)c1cc2cc(C)c3ccccc3c2oc1=O
- Activity (Mus musculus [1]): 65%
- Activity (Mus musculus [2]): 35%
- Activity (Mus musculus [3]): 40%
- Time (Mus musculus [4]): 8.5 s
- Activity (Mus musculus [5]): 48%

Compound: CCNC(=O)c1cc2cc(C)c3ccccc3c2oc1=O
- Activity (Mus musculus [1]): 68%
- Activity (Mus musculus [2]): 30%
- Activity (Mus musculus [3]): 30%
- Time (Mus musculus [4]): 10.2 s
- Activity (Mus musculus [5]): 45%

Compound: Cc1cc2cc(C(=O)N(C)C)c(=O)oc2c2ccccc12
- Activity (Mus musculus [1]): 100%
- Activity (Mus musculus [2]): 20%
- Activity (Mus musculus [3]): 40%
- Time (Mus musculus [4]): 10 s
- Activity (Mus musculus [5]): 58%

Compound: Cc1cc2cc(C(=O)NC3CCCCC3)c(=O)oc2c2ccccc12
- Activity (Mus musculus [1]): 82%
- Activity (Mus musculus [2]): 35%
- Activity (Mus musculus [3]): 40%
- Time (Mus musculus [4]): 10.2 s
- Activity (Mus musculus [5]): 53%

Compound: Cc1cc2cc(C(=O)N3CCCCC3)c(=O)oc2c2ccccc12
- Activity (Mus musculus [1]): 91%
- Activity (Mus musculus [2]): 20%
- Activity (Mus musculus [3]): 29%
- Time (Mus musculus [4]): 9.4 s
- Activity (Mus musculus [5]): 59%

Compound: Cc1cc2cc(C(=O)N3CCN(C)CC3)c(=O)oc2c2ccccc12
- Activity (Mus musculus [1]): 55%
- Activity (Mus musculus [2]): 10%
- Activity (Mus musculus [3]): 20%
- Time (Mus musculus [4]): 8.1 s
- Activity (Mus musculus [5]): 17%

Compound: Cc1cc2cc(C(=O)N3CCOCC3)c(=O)oc2c2ccccc12
- Activity (Mus musculus [1]): 100%
- Activity (Mus musculus [2]): 20%
- Activity (Mus musculus [3]): 33%
- Time (Mus musculus [4]): 11.6 s
- Activity (Mus musculus [5]): 33%

Compound: Cc1cc2cc(C(=O)NCCCN3CCOCC3)c(=O)oc2c2ccccc12
- Activity (Mus musculus [1]): 91%
- Activity (Mus musculus [2]): 30%
- Activity (Mus musculus [3]): 33%
- Time (Mus musculus [4]): 10.2 s
- Activity (Mus musculus [5]): 50%

Compound: Cc1ccc(NC(=O)c2cc3cc(C)c4ccccc4c3oc2=O)cc1
- Activity (Mus musculus [1]): 63%
- Activity (Mus musculus [2]): 30%
- Activity (Mus musculus [3]): 40%
- Time (Mus musculus [4]): 9.3 s
- Activity (Mus musculus [5]): 58%

Compound: CNC(=O)c1cc2cc(/C=C/C(=O)c3ccc(C)cc3)c3ccccc3c2oc1=O
- Activity (Mus musculus [1]): 55%
- Activity (Mus musculus [2]): 20%
- Activity (Mus musculus [3]): 22%
- Time (Mus musculus [4]): 9.9 s
- Activity (Mus musculus [5]): 17%

Compound: CCNC(=O)c1cc2cc(/C=C/C(=O)c3ccc(C)cc3)c3ccccc3c2oc1=O
- Activity (Mus musculus [1]): 100%
- Activity (Mus musculus [2]): 40%
- Activity (Mus musculus [3]): 44%
- Time (Mus musculus [4]): 11.1 s
- Activity (Mus musculus [5]): 33%

Compound: CCCNC(=O)c1cc2cc(/C=C/C(=O)c3ccc(C)cc3)c3ccccc3c2oc1=O
- Activity (Mus musculus [1]): 127%
- Activity (Mus musculus [2]): 40%
- Activity (Mus musculus [3]): 33%
- Time (Mus musculus [4]): 10.3 s
- Activity (Mus musculus [5]): 100%

Compound: Cc1ccc(C(=O)/C=C/c2cc3cc(C(=O)N(C)C)c(=O)oc3c3ccccc23)cc1
- Activity (Mus musculus [1]): 82%
- Activity (Mus musculus [2]): 30%
- Activity (Mus musculus [3]): 33%
- Time (Mus musculus [4]): 10.5 s
- Activity (Mus musculus [5]): 59%

Compound: Cc1ccc(C(=O)/C=C/c2cc3cc(C(=O)NC4CCCCC4)c(=O)oc3c3ccccc23)cc1
- Activity (Mus musculus [1]): 109%
- Activity (Mus musculus [2]): 40%
- Activity (Mus musculus [3]): 44%
- Time (Mus musculus [4]): 10.6 s
- Activity (Mus musculus [5]): 84%

Compound: Cc1ccc(C(=O)/C=C/c2cc3cc(C(=O)N4CCCCC4)c(=O)oc3c3ccccc23)cc1
- Activity (Mus musculus [1]): 45%
- Activity (Mus musculus [2]): 30%
- Activity (Mus musculus [3]): 42%
- Time (Mus musculus [4]): 9.7 s
- Activity (Mus musculus [5]): 25%

Compound: Cc1ccc(C(=O)/C=C/c2cc3cc(C(=O)N4CCN(C)CC4)c(=O)oc3c3ccccc23)cc1
- Activity (Mus musculus [1]): 36%
- Activity (Mus musculus [2]): 20%
- Activity (Mus musculus [3]): 22%
- Time (Mus musculus [4]): 8.7 s
- Activity (Mus musculus [5]): 34%

Compound: Cc1ccc(C(=O)/C=C/c2cc3cc(C(=O)N4CCOCC4)c(=O)oc3c3ccccc23)cc1
- Activity (Mus musculus [1]): 55%
- Activity (Mus musculus [2]): 20%
- Activity (Mus musculus [3]): 30%
- Time (Mus musculus [4]): 11.4 s
- Activity (Mus musculus [5]): 17%

Compound: Cc1ccc(C(=O)/C=C/c2cc3cc(C(=O)NCCCN4CCOCC4)c(=O)oc3c3ccccc23)cc1
- Activity (Mus musculus [1]): 45%
- Activity (Mus musculus [2]): 30%
- Activity (Mus musculus [3]): 33%
- Time (Mus musculus [4]): 11 s
- Activity (Mus musculus [5]): 25%

Compound: Cc1ccc(NC(=O)c2cc3cc(/C=C/C(=O)c4ccc(C)cc4)c4ccccc4c3oc2=O)cc1
- Activity (Mus musculus [1]): 109%
- Activity (Mus musculus [2]): 40%
- Activity (Mus musculus [3]): 44%
- Time (Mus musculus [4]): 9.5 s
- Activity (Mus musculus [5]): 83%

Compound: CC(=O)Oc1ccccc1C(=O)O [ASPIRIN]
- Activity (Mus musculus [2]): 37%
- Activity (Mus musculus [5]): 100%

Compound: CC(=O)CC(c1ccccc1)c1c(O)c2ccccc2oc1=O (stereo not given) [WARFARIN]
- Activity (Mus musculus [1]): 46%
- Activity (Mus musculus [3]): 50%
- Time (Mus musculus [4]): 116 s
